Literature values in patent publication US20220175829A1, “Antimicrobial Compositions” (Matoke Holdings Limited, priority 2019, published 2022).

Settings: 20° C. and 1 atm

- solubility: about 375 g/100 g water
SMILES: O=C(CO)[C@@H](O)[C@H](O)[C@H](O)CO [Fructose]
